The subject of one test is BT474. Kind of test: Cytotoxicity assay (SRB), BT474. It is filed as cell-based. The protocol:
(§1) BT474, HCT-116, LoVo and MCF-7 were maintained under 7% CO2 in RPMI 1640 medium supplemented with 10% fetal bovine serum and 50 µg/ml gentamicin.
(§2) Cells were plated in 96-well microtiter dishes (12000 cells/well for BT474, 4000 cells/well for HCT-116, 6000 cells/well for LoVo and 6000 cells/well for MCF-7) in RPMI 1640 medium containing 5% fetal bovine serum and 50 µg/ml gentamicin. The cells were allowed to incubate overnight at 37° C., 7% CO2. Compound dilutions were prepared using the same medium. HCT-116, LoVo and MCF-7 cells were cultured for three days and BT474 cells were cultured for 6 days, in the presence of each compound dilution. Untreated cells were included as controls. The percentage of surviving cells was determined using a protein binding dye (sulforhodamineB, SRB) assay. Cellular protein was precipitated in each well by the addition of 0.05 ml of 50% cold trichloroacetic acid (TCA). After 1 hour, the plates were washed extensively in dH2O and dried. The sulforhodamineB dye solution (0.08 mL of 0.4% SRB in 1% acetic acid) was added to each well, kept at room temperature for ten minutes, then washed in 1% acetic acid and dried. The dye was dissolved in 10 mM Tris-HCl (150 uL) and the absorbency read at 540 nm.

The next test deals with MCF-7. Kind of test: Cytotoxicity assay (SRB), MCF-7. It is filed as cell-based. The following applies: Homo sapiens, MCF7, 72 h, MCF-7 cells, SRB, read-out: In Vitro Cellular Activity IC50 MCF-7. Here is the method: as §1, §2
The next test deals with LoVo. Kind of test: Cytotoxicity assay (SRB), LoVo. The following applies: Homo sapiens, LoVo, 72 h, LoVo cells, SRB, read-out: In Vitro Cellular Activity IC50 LOVO. It is filed as cell-based. Here is the method:
as §1, §2

The next test deals with HCT-116. Kind of test: Cytotoxicity assay (SRB), HCT-116. It is filed as cell-based. As to conditions: Homo sapiens, HCT-116, 72 h, HCT116 cells, SRB, read-out: In Vitro Cellular Activity IC50 HCT116. The protocol: as §1, §2
Another test deals with T1, cyclin D1/cdk 4 enzyme (Homo sapiens, UniProt P11802).
T1 construct: made in house; host or cells: Sf9 insect cells, recombinant baculovirus
Kind of test: CDK4 ELISA kinase assay (phospho-Rb ser 795 detection). The following applies: In Vitro Enzyme Assay, cyclin D1/cdk 4, read-out: CDK4 IC50. It is filed as biochemical. The method, boiled down: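 ELISA format: plate-bound GST-Rb, 200 μM ATP, Sf9 cyclin/CDK enzyme, 1 h at 30° C; then anti-pRb Ser795 primary overnight at 4° C, HRP secondary, TMB. IC50 after no-substrate background subtraction.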

Where [1] appears, read: Homo sapiens, BT-474, 144 h, BT474 cells, 6 days, SRB; read-out: In Vitro Cellular Activity IC50 BT474.
Where [2] appears, read: Homo sapiens, BT-474, 144 h, BT474 cells, SRB, 6 days; read-out: In Vitro Cellular Activity IC50 BT474.

Where two headings read alike, the source gives them in different places. Where only a bound is given, the exact number is not on record here.

T1 sequence (P11802 whole entry, species assumed): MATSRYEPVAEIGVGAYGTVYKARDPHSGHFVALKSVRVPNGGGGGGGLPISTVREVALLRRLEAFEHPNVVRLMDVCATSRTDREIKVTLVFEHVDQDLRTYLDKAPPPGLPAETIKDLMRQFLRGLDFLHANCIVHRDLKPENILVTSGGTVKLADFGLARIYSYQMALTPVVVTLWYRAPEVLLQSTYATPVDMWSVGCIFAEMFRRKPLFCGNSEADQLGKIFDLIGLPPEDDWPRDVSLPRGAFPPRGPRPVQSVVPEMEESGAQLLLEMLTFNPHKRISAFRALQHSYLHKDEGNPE
T1 sequence (P24385 whole entry partner, species assumed): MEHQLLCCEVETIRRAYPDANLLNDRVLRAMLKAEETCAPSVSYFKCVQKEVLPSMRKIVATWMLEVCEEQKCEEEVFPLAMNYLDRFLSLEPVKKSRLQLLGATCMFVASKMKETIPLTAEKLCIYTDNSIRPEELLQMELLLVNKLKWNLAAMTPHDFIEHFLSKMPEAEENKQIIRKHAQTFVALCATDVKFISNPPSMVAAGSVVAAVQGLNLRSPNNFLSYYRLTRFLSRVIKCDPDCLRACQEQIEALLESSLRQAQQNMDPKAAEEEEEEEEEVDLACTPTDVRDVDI

What is called IC50 is the concentration that inhibits the measured activity by half. Consider `CC(C)(C)OC(=O)N1CCCC1c1ccc(N/C=C2\C(=O)NC(=O)c3ccc(I)cc32)cc1` (stereo not drawn) [Example 461, 2-{4-[(6-Iodo-1,3-dioxo-2,3-dihydro-1H-isoquinolin-4-ylidenemethyl)-amino]-phenyl}-pyrrolidine-1-carboxylic acid tert-butyl ester], for which the IC50 in the test with BT474 (setting [1]) is 7.7 µM; with MCF-7 (3 days) it was 23.3 µM; in the test with LoVo (3 days), 24.1 µM; in the test with HCT-116 (3 days), 22.8 µM.
For the molecule `CC(C)(C)OC(=O)N1CCN(c2ccc(N/C=C3\C(=O)NC(=O)c4ccc(I)cc43)cc2)CC1` [Example 377, tert-Butyl 4-(4-{[(Z)-(6-iodo-1,3-dioxo-2,3-dihydroisoquinolin-4(1H)-ylidene)methyl]amino}phenyl)piperazine-1-carboxylate], the concentration for half-maximal inhibition (IC50) is over 50 µM in the test with BT474 (setting [2]), over 50 µM in the test with MCF-7 (three days), over 50 µM in the test with LoVo (three days) and 11 µM in the test on HCT-116 (three days).
As for `O=C1NC(=O)c2ccc(Br)cc2/C1=C/NCc1ccc(OCCOCc2ccccc2)c(O)c1` [Example 159], the concentration for half-maximal inhibition (IC50) in the test on BT474 (setting [2]) was 25 µM; with MCF-7 (three days), over 50 µM; in the test with LoVo (three days), 18 µM; in the test on HCT-116 (three days), 16 µM.
Turning to `O=C1NC(=O)c2ccc(I)cc2/C1=C/Nc1ccc(C2=NCCC2)cc1` [Example 403, 4-{[4-(4,5-Dihydro-3H-pyrrol-2-yl)-phenylamino]-methylene}-6-iodo-4H-isoquinoline-1,3-dione], the IC50 is 40 µM in the test on BT474 (setting [1]), over 50 µM in the test with MCF-7 (3 days), over 50 µM in the test on LoVo (3 days) and 41.5 µM in the test with HCT-116 (3 days).
With `O=C1NCc2ccccc2C1=CNc1cccc(O)c1` [Example 859, 4-[(3-Hydroxy-phenylamino)-methylene]-1,4-dihydro-2H-isoquinolin-3-one], the IC50 is 31.2 µM in the test with BT474 (setting [1]), 20.6 µM in the test on MCF-7 (3 days), 40 µM with LoVo (3 days) and 40.4 µM in the test with HCT-116 (3 days).
Turning to `CN1CCN(c2ccc(N/C=C3\C(=O)NCc4ccc(Br)cc43)cc2)CC1` [Example 223, (4Z)-6-Bromo-4-({[4-(4-methylpiperazin-1-yl)phenyl]amino}methylene)-1,4-dihydroisoquinolin-3(2H)-one], the 50% inhibitory concentration (IC50) with BT474 (setting [2]) was 8.7 µM; in the test with MCF-7 (three days) it was 3.2 µM; in the test with LoVo (three days) it was 2.8 µM; with HCT-116 (three days), 4.1 µM.
Consider `O=C1NC(=O)c2ccc(Br)cc2C1=CNc1ccc(-c2ccncc2)cc1` [Example 329, 6-Bromo-4-[(4-pyridin-4-yl-phenylamino)-methylene]-4H-isoquinoline-1,3-dione], for which the 50% inhibitory concentration (IC50) with BT474 (setting [2]) was found to be 18.5 µM; in the test with MCF-7 (three days), 14 µM; in the test on LoVo (three days), 30 µM; with HCT-116 (three days), 4.7 µM.
With `CN1CCN(c2ccc(N/C=C3\C(=O)NC(C)(C)c4ccc(-c5ccoc5)cc43)cc2)CC1` [Example 458, 6-Furan-3-yl-1,1-dimethyl-4-{[4-(4-methyl-piperazin-1-yl)-phenylamino]-methylene}-1,4-dihydro-2H-isoquinolin-3-one], the IC50 in the test with BT474 (setting [1]) was determined as 3.5 µM; in the test on MCF-7 (3 days), 4.2 µM; with LoVo (3 days), 1.2 µM; with HCT-116 (3 days), 2.7 µM.
`O=C1NC(=O)c2ccc(Br)cc2/C1=C/NCc1ccc2cc[nH]c2c1` [Example 129, (4Z)-6-Bromo-4-{[(1H-indol-6-ylmethyl)amino]methylene}isoquinoline-1,3(2H,4H)-dione]: the IC50 is 30 µM in the test with BT474 (setting [2]), 39 µM in the test on MCF-7 (three days), over 50 µM in the test on LoVo (three days) and 26 µM in the test on HCT-116 (three days).
In the case of `CC(C)S(=O)(=O)Nc1cccc(CNC=C2C(=O)NC(=O)c3ccccc32)c1` [Example 580, Propane-2-sulfonic acid (3-{[(1,3-dioxo-2,3-dihydro-1H-isoquinolin-4-ylidenemethyl)-amino]-methyl}-phenyl)-amide], at cyclin D1/cdk 4 enzyme, the IC50 amounted to 48.7 µM.
On the same count and under the same terms, with `COc1ccc(NC=C2C(=O)NCc3cc(Br)ccc32)cc1O` [Example 862, 7-Bromo-4-[(3-hydroxy-4-methoxy-phenylamino)-methylene]-1,4-dihydro-2H-isoquinolin-3-one] the figure was 31 µM.
For the molecule `CC(C)c1ccc(-c2ccc3c(c2)C(=CNc2ccc(CC#N)cc2)C(=O)NC3=O)cc1` [Example 722, (4-{[6-(4-Isopropyl-phenyl)-1,3-dioxo-2,3-dihydro-1H-isoquinolin-4-ylidenemethyl]-amino}-phenyl)-acetonitrile], the 50% inhibitory concentration (IC50) at cyclin D1/cdk 4 enzyme was 25.3 µM.
Regarding `CN1CCN(c2ccc(NC=C3C(=O)NC(=O)c4ccc(C=CCCC(=O)O)cc43)cc2)CC1` [Example 795, 5-(4-{[4-(4-Methyl-piperazin-1-yl)-phenylamino]-methylene}-1,3-dioxo-1,2,3,4-tetrahydro-isoquinolin-6-yl)-pent-4-enoic acid], the concentration for half-maximal inhibition (IC50) at cyclin D1/cdk 4 enzyme turned out to be 24.2 µM.
On to `CCS(=O)(=O)NCc1ccc(N/C=C2\C(=O)NC(=O)c3ccccc32)cc1` [Example 613, Ethanesulfonic acid 4-[(1,3-dioxo-2,3-dihydro-1H-isoquinolin-4-ylidenemethyl)-amino]-benzylamide], for which, at cyclin D1/cdk 4 enzyme, the IC50 worked out at 33.1 µM.
On the same count and under the same terms, with `CSc1ccc(-c2ccc3c(c2)C(=CNc2ccc(N4CCN(C)CC4)cc2)C(=O)NC3=O)cc1` [Example 700, 4-{[4-(4-Methyl-piperazin-1-yl)-phenylamino]-methylene}-6-(4-methylsulfanyl-phenyl)-4H-isoquinoline-1,3-dione] the figure was 45 µM; with `CC(=O)N(C)c1ccc(NC=C2C(=O)NC(=O)c3ccccc32)cc1` [Example 554, N-{4-[(1,3-Dioxo-2,3-dihydro-1H-isoquinolin-4-ylidenemethyl)-amino]-phenyl}-N-methyl-acetamide], 36 µM; with `CCN(CC)CCNC(=O)c1ccc(NC=C2C(=O)NC(=O)c3ccccc32)cc1` [Example 543, N-(2-Diethylamino-ethyl)-4-[(1,3-dioxo-2,3-dihydro-1H-isoquinolin-4-ylidenemethyl)-amino]-benzamide], 42.7 µM.
Consider `CN1CCN(c2ccc(NC=C3C(=O)NC(=O)c4ccc(C=CCCCCO)cc43)cc2)CC1` [Example 798, 6-(6-Hydroxy-hex-1-enyl)-4-{[4-(4-methyl-piperazin-1-yl)-phenylamino]-methylene}-4H-isoquinoline-1,3-dione], for which the IC50 on cyclin D1/cdk 4 enzyme was determined as 2.5 µM.
Same read-out and setting: then `Cc1ccc(-c2ccc3c(c2)C(=CNc2ccc(N4CCN(C)CC4)cc2)C(=O)NC3=O)cc1` [Example 692, 4-{[4-(4-Methyl-piperazin-1-yl)-phenylamino]-methylene}-6-p-tolyl-4H-isoquinoline-1,3-dione], with 30.7 µM.
The same measure, in the same setting: with `N#CCc1ccc(NC=C2C(=O)NC(=O)c3ccc(-c4ccc(C(F)(F)F)cc4)cc32)cc1` [Example 709, (4-{[1,3-Dioxo-6-(4-trifluoromethyl-phenyl)-2,3-dihydro-1H-isoquinolin-4-ylidenemethyl]-amino}-phenyl)-acetonitrile] the figure was 38.6 µM.
Still for that read-out and setting: with `N#CCc1ccc(NC=C2C(=O)NC(=O)c3ccc(-c4ccc(-c5ccccc5)cc4)cc32)cc1` [Example 720, {4-[(6-Biphenyl-4-yl-1,3-dioxo-2,3-dihydro-1H-isoquinolin-4-ylidenemethyl)-amino]-phenyl}-acetonitrile] the figure was 21.7 µM.
`N#CCc1ccc(NC=C2C(=O)NC(=O)c3ccc(-c4cccc(-c5ccccc5)c4)cc32)cc1` [Example 721, {4-[(6-Biphenyl-3-yl-1,3-dioxo-2,3-dihydro-1H-isoquinolin-4-ylidenemethyl)-amino]-phenyl}-acetonitrile]: the concentration for half-maximal inhibition (IC50) on cyclin D1/cdk 4 enzyme turned out to be 25.9 µM.
For `NS(=O)(=O)c1ccc(CNC=C2C(=O)NC(=O)c3ccc(-c4ccc(C=CC(=O)O)cc4)cc32)cc1` [Example 759, 3-(4-{1,3-Dioxo-4-[(4-sulfamoyl-benzylamino)-methylene]-1,2,3,4-tetrahydro-isoquinolin-6-yl}-phenyl)-acrylic acid], the IC50 on cyclin D1/cdk 4 enzyme is 1.7 µM.
For `CC(=O)c1ccccc1-c1ccc2c(c1)C(=CNCc1ccc(S(N)(=O)=O)cc1)C(=O)NC2=O` [Example 748, 4-({[6-(2-Acetyl-phenyl)-1,3-dioxo-2,3-dihydro-1H-isoquinolin-4-ylidenemethyl]-amino}-methyl)-benzenesulfonamide], the half-inhibitory concentration (IC50) on cyclin D1/cdk 4 enzyme was 46.2 µM.

Values taken from patent US7713994B2 (Wyeth LLC, priority 2005, dated 2010).
